One data set has as its system Providencia sp. 164. In words: antibacterial activity (MIC), resistant strain. Type of data set: cell-based. The note with it: medium pH 7.2; strain producing gentamicin acetyltransferase (footnote 5); unit assumed. The protocol:
(§1) Furthermore in the following Table 3, the antibacterial activity (MIC) of the compounds are set forth. The measurement was carried out according to the Japanese Antibiotic Medicament Standard using a medium having a pH of 7.2. Numbers of the compounds in Table 3 correspond to those in Tables 1 and 2.

The test system of data set [1] is Escherichia coli R18 KY-8321. Put plainly: antibacterial activity (MIC), resistant strain. Type of data set: cell-based. The note with it: medium pH 7.2; strain producing gentamicin nucleotidyltransferase and neomycin phosphotransferase II; unit assumed. The protocol: as §1
In data set [2] the test system is Escherichia coli R19 KY-8348. Put plainly: antibacterial activity (MIC), resistant strain. The note with it: medium pH 7.2; strain producing gentamicin acetyltransferase; unit assumed. Type of data set: cell-based. As to the method:
as §1

In data set [3] the test system is Pseudomonas aeruginosa R9 KY8516. In words: antibacterial activity (MIC), resistant strain. It counts as cell-based. The note with it: medium pH 7.2; strain "producing kanamycin" (footnote 1); unit assumed. As to the method:
as §1

The test system of data set [4] is Pseudomonas aeruginosa R4 KY8511. Put plainly: antibacterial activity (MIC), resistant strain. Type of data set: cell-based. The note with it: medium pH 7.2; strain producing gentamicin acetyltransferase; unit assumed. As to the method: as §1
The test system of data set [5] is Escherichia coli R17 Z-343. In words: antibacterial activity (MIC), resistant strain. Type of data set: cell-based. The note with it: medium pH 7.2; strain "producing kanamycin" (footnote 1); unit assumed. As to the method:
as §1

For data set [6], the system named is Escherichia coli 57R/W677. Put plainly: antibacterial activity (MIC), resistant strain. Type of data set: cell-based. The following applies: medium pH 7.2; strain "producing gentamicin" (footnote 4); unit assumed. The protocol: as §1
The subject of data set [7] is Klebsiella pneumniae 3020 Y60. In words: antibacterial activity (MIC), resistant strain. The note with it: medium pH 7.2; strain "producing gentamicin" (footnote 4); unit assumed. It counts as cell-based. The protocol: as §1
Data set [8] concerns Staphylococcus aureus 209-p. In words: antibacterial activity (MIC). Type of data set: cell-based. The following applies: medium pH 7.2, Japanese Antibiotic Medicament Standard; unit assumed. As to the method: as §1
In data set [9] the test system is Staphylococcus aureus Smith. In words: antibacterial activity (MIC). Type of data set: cell-based. The following applies: medium pH 7.2, Japanese Antibiotic Medicament Standard; unit assumed. The protocol:
as §1

The test system of another data set is Escherichia coli 3100. Put plainly: antibacterial activity (MIC). Type of data set: cell-based. The note with it: medium pH 7.2, Japanese Antibiotic Medicament Standard; unit assumed. As to the method: as §1
Data set [10] has as its system Bacillus subtilis ATCC 6633. In words: antibacterial activity (MIC). It counts as cell-based. The following applies: medium pH 7.2, Japanese Antibiotic Medicament Standard; unit assumed. The protocol: as §1
Data set [11] relates to Shigella sonnei ATCC 9290. In words: antibacterial activity (MIC). Type of data set: cell-based. The following applies: medium pH 7.2, Japanese Antibiotic Medicament Standard; unit assumed. The protocol:
as §1

Data set [12] relates to Pseudomonas aeruginosa BMH#10. In words: antibacterial activity (MIC). Type of data set: cell-based. The note with it: medium pH 7.2, Japanese Antibiotic Medicament Standard; unit assumed. As to the method:
as §1

The next data set concerns Providencia sp. KY3950. Put plainly: antibacterial activity (MIC). Type of data set: cell-based. The following applies: medium pH 7.2, Japanese Antibiotic Medicament Standard; unit assumed. The protocol:
as §1

The subject of data set [13] is Klebsiella pneumoniae #8045. In words: antibacterial activity (MIC). Type of data set: cell-based. The note with it: medium pH 7.2, Japanese Antibiotic Medicament Standard; unit assumed. The protocol:
as §1

Another data set relates to Escherichia coli NIHJ-2. In words: antibacterial activity (MIC). Type of data set: cell-based. The note with it: medium pH 7.2, Japanese Antibiotic Medicament Standard; unit assumed. As to the method:
as §1

The format of data set [14] is physicochemical. The following applies: strongly alkaline conditions. The text has this:
That is, Compound I-a is almost decomposed in an alkaline solution with a pH of 10 at room temperature for 2 weeks to form compounds having low activity.

For data set [15] the following is noted: strongly alkaline or alkaline conditions; cited from earlier work.

The structures appear in SMILES notation.

As to `NC[C@H]1O[C@H](O[C@H]2[C@H](O)[C@@H](O[C@H]3O[C@H](CO)[C@@H](O)[C@H](N)[C@H]3O)[C@H](N)C[C@@H]2N)[C@H](O)[C@@H](O)[C@@H]1O` [KA, kanamycin A, reference compound], the antibacterial activity (MIC) was over 100 µg/mL in the data set on Providencia sp. 164; over 100 µg/mL in data set [1]; over 100 µg/mL in data set [2]; over 100 µg/mL in data set [3]; over 100 µg/mL in data set [4]; 12.5 µg/mL in data set [5]. The antibacterial activity (MIC) in data set [6] was 100 µg/mL; in data set [7], over 100 µg/mL; in data set [8] it was 0.4 µg/mL; in data set [9] it was 0.4 µg/mL; in the data set with Escherichia coli 3100 it was 3.12 µg/mL; in data set [10], 0.4 µg/mL. Besides, the antibacterial activity (MIC) was found to be 3.12 µg/mL in [11]; 25 µg/mL in data set [12]; 12.5 µg/mL in the data set with Providencia sp. KY3950; 0.78 µg/mL in data set [13]; 1.56 µg/mL in the data set with Escherichia coli NIHJ-2.
With `COC1C(O)C(N)C(OC2OC(C(C)N)CCC2N)C(O)C1N(C)C(=O)CN` (centres unmarked) [Compound 2, fortimicin A, reference compound], the “stability under strongly alkaline conditions” value in data set [14] is “slightly unstable”. Moreover, in data set [15], the “stability under alkaline conditions (background)” value is listed as “slightly unstable”. For the same compound, the antibacterial activity (MIC) in the data set with Providencia sp. 164 was 3.12 µg/mL; in [1], 3.12 µg/mL; in [2], over 100 µg/mL; in data set [3] it was 12.5 µg/mL; in data set [4] it was over 100 µg/mL; in data set [5], 1.56 µg/mL. The antibacterial activity (MIC) in data set [6] amounted to 6.25 µg/mL; in data set [7], 6.25 µg/mL; in [8] it was 0.78 µg/mL; in [9], 1.56 µg/mL; in the data set with Escherichia coli 3100, 6.25 µg/mL; in [10], 0.78 µg/mL. Besides, the antibacterial activity (MIC) in data set [11] is 6.25 µg/mL; in data set [12] it was 0.78 µg/mL; in [13] it was 1.56 µg/mL; in the data set on Escherichia coli NIHJ-2, 1.56 µg/mL.
Regarding `COC1C(O)C(N)C(OC2OC(C(C)N)CCC2NC[C@@H](O)CCN)C(O)C1N(C)C[C@@H](O)CCN` (stereo partly drawn) [Compound 9, 4,2'-di-N-[(S)-4-amino-2-hydroxybutyl]fortimicin B], the antibacterial activity (MIC) came out at 3.12 µg/mL in the data set with Providencia sp. 164; 1.56 µg/mL in data set [1]; 6.25 µg/mL in [2]; 3.12 µg/mL in data set [3]; 100 µg/mL in data set [4]; 1.56 µg/mL in data set [5]. Besides, the antibacterial activity (MIC) in data set [6] is 3.12 µg/mL; in data set [7], 3.12 µg/mL; in data set [8] it was 0.78 µg/mL; in [9] it was 0.78 µg/mL; in the data set with Escherichia coli 3100, 3.12 µg/mL; in data set [10], 0.4 µg/mL. Further, the antibacterial activity (MIC) amounted to 3.12 µg/mL in data set [11]; 0.78 µg/mL in [12]; 1.56 µg/mL with Providencia sp. KY3950; 1.56 µg/mL in [13]; 1.56 µg/mL in the data set on Escherichia coli NIHJ-2.
For the compound `COC1C(O)C(N)C(OC2OC(C(C)N)CCC2NCCN)C(O)C1N(C)C[C@@H](O)CCN` (stereo partly drawn) [Compound 7, 4-N-[(S)-4-amino-2-hydroxybutyl]-2'-N-(2-aminoethyl)fortimicin B], the antibacterial activity (MIC) with Providencia sp. 164 stood at 12.5 µg/mL; in data set [1] it was 3.12 µg/mL; in data set [2], 0.78 µg/mL; in data set [3], 6.25 µg/mL; in [4], 12.5 µg/mL; in data set [5], 0.78 µg/mL. The antibacterial activity (MIC) in data set [6] was determined as 3.12 µg/mL; in [7], 6.25 µg/mL; in [8], 0.78 µg/mL; in [9], 1.56 µg/mL; with Escherichia coli 3100 it was 3.12 µg/mL; in data set [10] it was 0.4 µg/mL. The antibacterial activity (MIC) came out at 3.12 µg/mL in [11]; 0.78 µg/mL in [12]; 6.25 µg/mL in the data set with Providencia sp. KY3950; 0.78 µg/mL in [13]; 3.12 µg/mL with Escherichia coli NIHJ-2.
Turning to `COC1C(O)C(N)C(OC2OC(C(C)N)CCC2NC(=O)[C@@H](O)CCN)C(O)C1N(C)C[C@@H](O)CCN` (stereo partly drawn) [Compound 8, 4-N-[(S)-4-amino-2-hydroxybutyl]-2'-N-[(S)-4-amino-2-hydroxybutyryl]fortimicin B], the antibacterial activity (MIC) in the data set on Providencia sp. 164 worked out at 6.25 µg/mL; in data set [1] it was 6.25 µg/mL; in data set [2], 3.12 µg/mL; in [3], 50 µg/mL; in data set [4], 100 µg/mL; in [5], 0.78 µg/mL. The antibacterial activity (MIC) turned out to be 3.12 µg/mL in [6]; 12.5 µg/mL in data set [7]; 0.78 µg/mL in [8]; 1.56 µg/mL in data set [9]; 3.12 µg/mL in the data set with Escherichia coli 3100; 0.78 µg/mL in [10]. Besides, the antibacterial activity (MIC) in [11] is 6.25 µg/mL; in data set [12], 0.78 µg/mL; in the data set on Providencia sp. KY3950, 6.25 µg/mL; in [13], 1.56 µg/mL; in the data set with Escherichia coli NIHJ-2, 1.56 µg/mL.
As for `COC1C(O)C(N)C(OC2OC(C(C)N)CCC2NC(=O)CN)C(O)C1N(C)C[C@@H](O)CCN` (stereo partly drawn) [Compound 6, 4-N-[(S)-4-amino-2-hydroxybutyl]-2'-N-glycylfortimicin B], the antibacterial activity (MIC) with Providencia sp. 164 stood at 6.25 µg/mL; in data set [1] it was 3.12 µg/mL; in [2] it was 3.12 µg/mL; in data set [3], 25 µg/mL; in [4], 50 µg/mL; in data set [5], 1.56 µg/mL. In addition, the antibacterial activity (MIC) in data set [6] was found to be 6.25 µg/mL; in [7], 6.25 µg/mL; in data set [8] it was 1.56 µg/mL; in data set [9] it was 0.78 µg/mL; with Escherichia coli 3100 it was 6.25 µg/mL; in data set [10] it was 0.78 µg/mL. Besides, the antibacterial activity (MIC) amounted to 6.25 µg/mL in [11]; 0.78 µg/mL in data set [12]; 6.25 µg/mL in the data set on Providencia sp. KY3950; 1.56 µg/mL in data set [13]; 3.12 µg/mL in the data set on Escherichia coli NIHJ-2.
Take `COC1C(O)C(N)C(OC2OC(C(C)N)CCC2NCCO)C(O)C1N(C)C[C@@H](O)CCN` (stereo partly drawn) [Compound 10, 4-N-[(S)-4-amino-2-hydroxybutyl]-2'-N-(2-hydroxyethyl)fortimicin B]: the antibacterial activity (MIC) with Providencia sp. 164 is 50 µg/mL; in data set [1], 1.56 µg/mL; in [2] it was 100 µg/mL; in data set [3] it was 50 µg/mL; in data set [4], over 100 µg/mL; in data set [5] it was 3.12 µg/mL. The antibacterial activity (MIC) came out at 3.12 µg/mL in [6]; 100 µg/mL in data set [7]; 1.56 µg/mL in data set [8]; 0.78 µg/mL in data set [9]; 3.12 µg/mL in the data set with Escherichia coli 3100; 0.78 µg/mL in [10]. For the same compound, the antibacterial activity (MIC) in data set [11] is 6.25 µg/mL; in [12] it was 1.56 µg/mL; in the data set on Providencia sp. KY3950, 12.5 µg/mL; in data set [13], 6.25 µg/mL; in the data set on Escherichia coli NIHJ-2 it was 6.25 µg/mL.
Regarding `COC1C(O)C(N)C(OC2OC(C(C)N)CCC2NCCN)C(O)C1N(C)CCN` (centres unmarked) [Compound 5, 4,2'-di-N-(2-aminoethyl)fortimicin B], the antibacterial activity (MIC) was 50 µg/mL in the data set on Providencia sp. 164; 6.25 µg/mL in [1]; 25 µg/mL in data set [2]; over 100 µg/mL in data set [3]; 100 µg/mL in data set [4]; 3.12 µg/mL in data set [5]. Further, the antibacterial activity (MIC) in [6] is 6.25 µg/mL; in [7], 25 µg/mL; in [8], 1.56 µg/mL; in data set [9], 1.56 µg/mL; in the data set on Escherichia coli 3100, 6.25 µg/mL; in data set [10], 1.56 µg/mL. Moreover, the antibacterial activity (MIC) amounted to 12.5 µg/mL in data set [11]; 1.56 µg/mL in data set [12]; 12.5 µg/mL in the data set on Providencia sp. KY3950; 3.12 µg/mL in data set [13]; 3.12 µg/mL with Escherichia coli NIHJ-2.
